From paper PMC5789847, “Bismuth antimicrobial drugs serve as broad-spectrum metallo-β-lactamase inhibitors” (Nature Communications, 2018)

What was measured:
NDM-HK (NDM-1^+) = experiment: microbe, parasite or virus in culture; format: cell-based, E. coli; settings: for MBC of MER in combination with compound at 32 µg mL^-1 / MIC of MER in combination with compound at 32 µg mL^-1 / FICI / MBC of Bi(III) compound/inhibitor alone / MIC of Bi(III) compound/inhibitor alone: NDM-HK; for FICI: MER + compound, 256 µg mL^-1 set as MIC of Bi(III), 128 for Bi(NAC)3
Description: (§1) MIC values were determined by standard broth micro-dilution method (Clinical and Laboratory Standards Institute (CLSI) M100-S20, 2010)[64]. Briefly, bacterial cells were cultured in LB broth overnight at 37 °C at 250 rpm and the OD was measured at 600 nm (OD600). The bacterial density was adjusted to about 1 × 10^6 CFU mL^−1 and checked by CFU counting on agar plates afterwards. Tested antibiotics or Bi(III) compounds were added triplicately into individual wells of flat-bottomed 96-well plates and performed 2-fold serial dilution, followed by addition of prepared bacterial inocula. The plate was then incubated at 37 °C for overnight. […] The MIC was determined as the lowest concentration of a drug that could inhibit the growth of microorganism by both visual reading and OD reading at 600 nm using a microtiter plate reader.
(§2) Resulting growth (or lack of growth) was examined after overnight culturing and the lowest concentration that inhibits 99.9% of the original culture was taken as MBC.
(§3) Other procedures were kept strictly the same. […] Synergism was defined when FICI ≤ 0.5, indifference was defined when FICI > 0.5 and < 4, and antagonism was defined when FICI≥4[65]. […] All of the determinations were performed at least in triplicate on different days.

VIM-BL21 (VIM-2^+) = experiment: microbe, parasite or virus in culture; format: cell-based, E. coli; settings: VIM-BL21
Description: as §1, §2, §3

SMILES | MBC (NDM-HK (NDM-1^+); Escherichia coli, read-out: MBC of Bi(III) compound/inhibitor alone) | MIC (NDM-HK (NDM-1^+); Escherichia coli, read-out: MIC of Bi(III) compound/inhibitor alone) | MBC of MER in combination with compound at 32 µg mL^-1 (NDM-HK (NDM-1^+)) | MIC of MER in combination with compound at 32 µg mL^-1 (NDM-HK (NDM-1^+)) | FICI (NDM-HK (NDM-1^+)) | MBC of Bi(III) compound/inhibitor alone (NDM-HK (NDM-1^+)) | MIC of Bi(III) compound/inhibitor alone (NDM-HK (NDM-1^+)) | MBC of Bi(III) compound alone (VIM-BL21 (VIM-2^+)) | MBC of MER in combination with compound at 32 µg mL^-1 (VIM-BL21 (VIM-2^+)) | MIC of Bi(III) compound alone (VIM-BL21 (VIM-2^+)) | MIC of MER in combination with compound at 32 µg mL^-1 (VIM-BL21 (VIM-2^+)) | FICI (VIM-BL21 (VIM-2^+); MER + compound, 256 µg mL^-1 set as MIC of Bi(III))
C[C@H](CS)C(=O)N1CCC[C@@H]1C(=O)O [CPL, D-captopril] | > 256 µg/mL | > 256 µg/mL | 16 µg/mL | 16 µg/mL | 2.000 | – | – | – | – | – | – | –
O=C([O-])CN(CCN(CC(=O)[O-])CC(=O)O)CC(=O)[O-].[Bi+3] [Bi(EDTA)] | – | – | 0.5 µg/mL | 0.5 µg/mL | 0.094 | > 256 µg/mL | > 256 µg/mL | – | – | – | – | –
CC(=O)N[C@@H](CS)C(=O)O [NAC, N-acetyl-cysteine] | – | – | 8 µg/mL | 8 µg/mL | 0.750 | > 256 µg/mL | > 256 µg/mL | – | – | – | – | –
NC(CCC(=O)NC(C[S][Bi]([S]CC(NC(=O)CCC(N)C(=O)O)C(=O)NCC(=O)O)[S]CC(NC(=O)CCC(N)C(=O)O)C(=O)NCC(=O)O)C(=O)NCC(=O)O)C(=O)O (stereo not shown) [Bi(GSH)3] | – | – | 4 µg/mL | 2 µg/mL | 0.250 | > 256 µg/mL | > 256 µg/mL | – | – | – | – | –
C[C@H](C[S][Bi+][S]C[C@@H](C)C(=O)N1CCC[C@H]1C(=O)[O-])C(=O)N1CCC[C@H]1C(=O)[O-] [Bi(CPL)2] | – | – | 0.5 µg/mL | 0.5 µg/mL | 0.125 | > 256 µg/mL | > 256 µg/mL | > 256 µg/mL | 1 µg/mL | > 256 µg/mL | 0.5 µg/mL | 0.078
CNC(=C[N+](=O)[O-])NCCSCc1ccc(CN(C)C)o1.O=C([O-])CC(O)(CC(=O)[O-])C(=O)[O-].[Bi+3] [RBC, ranitidine bismuth citrate] | – | – | 4 µg/mL | 2 µg/mL | 0.250 | > 256 µg/mL | > 256 µg/mL | – | – | – | – | –
O=C(O)CN(CCN(CC(=O)O)CC(=O)O)CC(=O)O [EDTA, ethylenediaminetetraacetate] | – | – | 0.5 µg/mL | 0.5 µg/mL | 0.031 | > 256 µg/mL | > 256 µg/mL | – | – | – | – | –
